This is an account of results in patent US10675267B2, “Methods for detection and eradication of myeloid leukemia stem cells” (priority 2015, dated 2020).

Structures are written as SMILES. Entries after “also recorded” stand apart in the source; their conditions may differ.

Series [1] relates to AML LSC (CD34+ cells from AML primary samples). In words: SL/M2 stromal co-culture with colony formation (survival) and replating (self-renewal) assays, AML. It counts as cell-based, human. The protocol:
(§1) In hypothesis-driven experiments, the splicing modulatory compound 17S-FD-895 was tested to determine efficacy in altering splicing activity in cell lines, and to evaluate effects on AML LSC survival and self-renewal capacity in humanized bone marrow stromal co-cultures and in PRIMAGRAFT™ AML LSC models. Cell culture experiments were performed using 293T and sAML (MOLM-13) cell lines, and SL and M2 bone marrow stromal cell lines. Animal studies were performed using immunocompromised Rag2−/−γc−/−[20] or NOD/SCID-IL2RG mice (Jackson Laboratory, Bar Harbor, Me.). Primary AML and normal control samples were used in in vitro hematopoietic stem and progenitor assays after bone marrow stromal co-culture and treatment with splicing modulatory compounds (FD-895 or 17S-FD-895) or vehicle control (DMSO). Colony formation potential and self-renewal capacity were assessed by counting colony numbers (survival) after two weeks of growth in semi-solid (methylcellulose) media, and subsequent replating capacity (self-renewal) was assessed after transfer to fresh methylcellulose for an additional two weeks of culture. Three primary AML samples were utilized to establish PRIMAGRAFT™ models in immunocompromised mice, and mice engrafted with cells from two of these models (AML-37 and AML-08) were treated with 17S-FD-895 or vehicle (DMSO) to evaluate changes in AML LSC survival and self-renewal capacity in vivo. Data were collected by flow cytometry and qRT-PCR analysis of CD34-selected human LSC-enriched cells from engrafted mice.
(§2) Bone marrow SL/M2 monolayers were established from freshly inactivated (irradiated) cells and then human CD34^+ cells selected from AML primary samples (n=8) and normal controls (CD34^+ cells from cord blood, CB, n=6; or aged bone marrow, n=6) were added. Survival and self-renewal of the CD34+ cells were investigated by methylcellulose-based colony and replating assays. Two SF3B1-targeted splicing modulators, FD-895 or 17S-FD-895, were added at the initiation of co-culture at concentrations ranging from 0.1 to 10 μM.
Mouse bone marrow stromal cell lines (SL and M2 mycoplasma-free authenticated cells obtained from ATCC) expressing human interleukin-3 (IL-3), stem cell factor (SCF) and granulocyte-colony stimulating factor (G-CSF), which support erythroid and myeloid cell expansion and differentiation, were maintained under standard culture conditions, as previously described. Briefly, SL cells were grown in complete medium containing DMEM (Corning), 10% FBS, 1% Glutamax, and 1% penicillin-streptomycin (Life Technologies), while M2 cells were grown in complete medium containing RPMI, 10% FBS, 1% Glutamax, and 1% penicillin-streptomycin (all from Life Technologies). Every four passages, cells were selected by addition of G418 and hygromycin to the culture media for one passage (3-4 days), to maintain human cytokine expression. All cell lines were maintained in T-25 or T-75 culture flasks and were passaged at dilutions of 1:5-1:10 every 2-4 days. Low passage aliquots of cells were thawed every two months to ensure consistency of experiments.
(§3) As previously described (Goff et al., 2013), humanized bone marrow SL/M2 monolayers were inactivated (irradiated) and then human CD34^+ cells selected from AML primary samples and normal controls were added for two weeks of co-culture, followed by methylcellulose-based colony and replating assays. FD-895 or 17S-FD-895 were added at the initiation of co-culture, with DMSO as a vehicle control.
Mouse bone marrow stromal cell lines (SL and M2 mycoplasma-free authenticated cells obtained from ATCC) expressing human interleukin-3 (IL-3), stem cell factor (SCF) and granulocyte-colony stimulating factor (G-CSF), which support erythroid and myeloid cell expansion and differentiation (Hogge et al., 1996), were maintained under standard culture conditions, as previously described (Goff et al., 2013). […]

For series [2], the system named is CD34+ cells from normal aged bone marrow. As to the kind of experiment: SL/M2 stromal co-culture with colony and replating assays, normal bone marrow. It counts as cell-based, human. The following applies: normal aged bone marrow samples. The protocol: as §1, §2, §3
Series [3] has as its system CD34+ cells from normal cord blood. As to the kind of experiment: SL/M2 stromal co-culture with colony and replating assays, cord blood. The following applies: even at high doses. It counts as cell-based, human. How it is done:
as §1, with “Three primary AML samples were utilized to establish PRIMAGRAFT™ models in immunocompromised mice, and mice engrafted with cells from two of these models (AML-37 and AML-08) were treated with 17S-FD-895 or vehicle (DMSO) to evaluate changes in AML LSC survival and self-renewal capacity in vivo. Data were collected by flow cytometry and qRT-PCR analysis of CD34-selected human LSC-enriched cells from engrafted mice.” left out

Series [4] concerns human CD34+ cell fractions from spleens and bone marrow of AML-37 engrafted mice. In words: RNA-Seq of human CD34+ cells pooled from spleens and bone marrow of treated sAML-engrafted mice. It counts as in vivo. How it is done:
In vivo molecular response to therapeutic splicing modulation. RNA-seq analysis was performed in human CD34+ cell fractions isolated from spleens and bone marrow of 17S-FD-895-treated sAML-engrafted mice. […] The data are set forth in Table 4 following, which formed the basis for calculation of FIG. 17G.
Xenograft sequencing data of 2×150 bp paired end reads were trimmed using cutadapt 1.8.1, aligned using STAR 2.5.0b against the GRCh37 reference FASTA sequence with the Ensembl GRCh37.75 GTF as a splice junction source. Strandedness was inferred using modulate “infer_experiment.py” from the RSeQC package (Wang et al., 2012). Then, transcripts were quantified using Cufflinks v2.2.1 (Trapnell et al., 2010) against the Ensembl GRCh37.75 GTF reference with bias correction against the GRCh37 reference FASTA. This yielded Cufflinks FPKM values. Isoforms sharing gene names were summed to yield gene FPKMs. FPKM values were transformed to generate log 2(FPKM+1) for all transcripts in the sAML isoform signature (FIGS. 11D, 11E, 12D), comparing vehicle versus 10 mg/kg treatment groups for spleen and bone marrow. Then, a heatmap was generated using all transcripts showing a L2FC>0.5 in both tissues, occurring in the opposite direction of the L2FC transcript expression values in sAML versus normal age-matched controls (i.e. L2FC>1 in sAML, L2FC<−0.5 in 10 mg/kg-treated spleen and bone marrow).
Gene expression data in FPKM was submitted to GSEA to determine significant KEGG pathways, and enrichment plots describing ranked gene expression in those pathways. Additional analyses were performed using custom gene sets including genes associated with the top differentially expressed transcript signatures in aged (“aged up”) versus young (“young up”) HPC and sAML (“sAML up”) versus aged (“aged up”) HPC (FIGS. 11D, 11E, 12D). We acknowledge our use of the gene set enrichment analysis, GSEA software, and Molecular Signature Database (see website: broad.mit.edu). […]

The mark [5] stands for this setting: two weeks SL/M2 co-culture, 0.1-10 μM, versus DMSO.

With `CC[C@H](OC)[C@@H](C)[C@H]1O[C@@H]1[C@@H](O)[C@H](C)/C=C/C=C(\C)[C@H]1OC(=O)C[C@H](O)CC[C@@](C)(O)[C@@H](OC(C)=O)/C=C/[C@@H]1C` (stereo in doubt) [Formula 17S-FD-895, 17S-FD-895], in series [1] (1 μM dose, p=0.020), the “AML LSC survival compared with FD-895” value is reported as “significantly lower”. Moreover, the “LSC survival and self-renewal, validation cohort” value in series [1] (1 μM, separate patient samples, versus normal controls) was “Reduced AML LSC survival and self-renewal compared to normal controls”. Further, in series [1] (0.1 and 1 μM doses, p=0.001), the “AML LSC self-renewal compared with FD-895” value was “significantly lower”. For the same molecule, in series [1] (LSC assays), the “functional potency compared with FD-895” value is recorded as “greater functional potency than FD-895”. For the same molecule, the “therapeutic index (AML LSC versus normal HSPC)” value in series [1] (LSC assays, stromal co-culture) is given as “favorable therapeutic index”. Moreover, in series [1] (setting [5]), the “AML LSC self-renewal (colony replating)” value is reported as “dose-dependent reduction; also recorded: reduced AML LSC self-renewal” and the “AML LSC survival (colony formation)” value is given as “dose-dependent reduction; also recorded: reduced AML LSC survival”. For the same molecule, in series [2], the “erythroid colony formation and self-renewal” value was “not significantly changed; also recorded: no effect on erythroid colonies”; the “granulocyte-macrophage (myeloid) colony survival” value was “slight decrease; also recorded: reduces myeloid colony formation”. Moreover, the “normal CB samples, survival and self-renewal” value in series [3] is “unaffected”. Also, the “GSEA of the “aged up” signature” value in series [4] (10 mg/kg treated mice versus vehicle) is “enriched”. In series [4] (higher treatment doses, bone marrow and spleen), the “expression of sAML-specific transcripts STAT6-016 and ITGB2-201” value is “reverted to a normal expression pattern”. In addition, the PTK2B transcripts result in series [4] (spleen and bone marrow, after treatment) was “decreased”.
